Experimental data reported in BindingDB's records for PubMed 9463480 (F. Hoffmann-La Roche, 1998).

Molecular target: Metabotropic glutamate receptor 2 (Homo sapiens, UniProt Q14416)
Sequence (Q14416 whole entry): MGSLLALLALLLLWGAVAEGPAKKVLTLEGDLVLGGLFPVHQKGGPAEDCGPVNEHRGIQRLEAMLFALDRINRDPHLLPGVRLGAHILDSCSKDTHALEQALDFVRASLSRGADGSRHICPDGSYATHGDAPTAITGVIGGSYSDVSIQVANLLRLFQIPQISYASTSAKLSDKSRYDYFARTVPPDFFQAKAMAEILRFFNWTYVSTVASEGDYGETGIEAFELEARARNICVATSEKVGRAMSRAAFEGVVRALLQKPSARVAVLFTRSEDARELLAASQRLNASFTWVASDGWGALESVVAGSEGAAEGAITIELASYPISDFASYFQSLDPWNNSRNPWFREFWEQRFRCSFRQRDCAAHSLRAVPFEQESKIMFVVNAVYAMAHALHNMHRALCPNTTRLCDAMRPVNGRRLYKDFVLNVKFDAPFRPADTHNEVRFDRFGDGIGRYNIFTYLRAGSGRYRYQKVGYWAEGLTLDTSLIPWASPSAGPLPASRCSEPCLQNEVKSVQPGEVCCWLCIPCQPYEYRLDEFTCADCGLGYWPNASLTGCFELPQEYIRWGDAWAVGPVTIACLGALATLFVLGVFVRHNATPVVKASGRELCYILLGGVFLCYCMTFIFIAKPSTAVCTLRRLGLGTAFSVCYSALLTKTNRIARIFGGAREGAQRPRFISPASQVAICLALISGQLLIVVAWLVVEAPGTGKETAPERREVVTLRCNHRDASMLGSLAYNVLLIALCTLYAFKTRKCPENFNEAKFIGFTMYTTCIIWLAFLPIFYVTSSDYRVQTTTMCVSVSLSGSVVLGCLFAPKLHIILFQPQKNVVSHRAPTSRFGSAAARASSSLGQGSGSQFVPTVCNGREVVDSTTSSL

Compound | Ki [nM]
N[C@@H](CCP(=O)(O)O)C(=O)O | > 10000
C[C@@](N)(C(=O)O)c1ccc(C(=O)O)cc1 (racemic) | > 10000
N[C@@]1(C(=O)O)CC[C@H](C(=O)O)C1 [1S, 3R-ACPD] | 2000
N[C@@H](Cn1oc(=O)[nH]c1=O)C(=O)O [2-amino-3-(3,5-dioxo[1,2,4]oxadiazolidin-2-yl)propionic acid] | > 10000
N[C@H](CP(=O)(O)O)C(=O)O [CAS_23052-80-4] | > 10000
NC(Cn1cnc2c(=O)[nH]c(=O)[nH]c21)(C(=O)O)C1CC1C(=O)O (centres undefined) [CAS_5311260] | 10
N[C@H](C(=O)O)C1[C@@H](C(=O)O)[C@@H]1C(=O)O (some centres undefined) [DCG-IV] | 60
N[C@H](C(=O)O)[C@H]1C[C@H]1C(=O)O [L-CCG-IV] | 70
C[C@](N)(C(=O)O)C1C[C@@H]1C(=O)O (some centres undefined) [MCCG-I] | > 10000
